These are literature values, as cited in patent publication US20110110858A1, “Gold nanoparticle imaging agents and uses thereof” (priority 2009, published 2011).

The conditions of the data set: 25° C.

Regarding `NCCCC[C@H](N[C@@H](CCc1ccccc1)C(=O)O)C(=O)N1CCC[C@H]1C(=O)O` [lisinopril], the “pKa of the central CO2H” value was 2.5, the “pKa of the lysyl amino group” value was 10.1, the “pKa of the prolyl CO2H” value is 4.0 and the “pKa of the secondary amine group” value was 6.7.
